Molecules are shown by their SMILES.

For this test, the target named is T1, human somatostatin receptor subtype 2 (Homo sapiens, UniProt P30874).
T1 construct: expressed in transfected cells; host or cells: CHO (Chinese hamster ovary) cells, cultured under G-418 selection
T1 sequence (P30874 whole entry): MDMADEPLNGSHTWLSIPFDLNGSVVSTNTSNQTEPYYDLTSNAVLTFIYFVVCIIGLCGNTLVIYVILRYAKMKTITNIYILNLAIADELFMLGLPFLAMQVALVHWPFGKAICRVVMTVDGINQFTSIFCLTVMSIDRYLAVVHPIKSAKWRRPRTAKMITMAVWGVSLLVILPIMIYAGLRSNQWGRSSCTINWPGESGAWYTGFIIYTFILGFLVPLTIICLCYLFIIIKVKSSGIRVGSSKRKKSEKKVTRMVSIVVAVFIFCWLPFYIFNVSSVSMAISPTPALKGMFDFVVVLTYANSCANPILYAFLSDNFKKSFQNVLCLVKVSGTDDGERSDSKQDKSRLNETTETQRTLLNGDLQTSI
The test can be described thus: cAMP assay (inhibition of cAMP activities via sst2 receptor). The class given is cell-based. As to conditions: CHO cells expressing the human somatostatin receptor subtype 2, forskolin. From the text:
General overview: All five SSTR subtypes are Gi coupled G-protein coupled receptors (GPCRs) that lead to decreases in intracellular cyclic AMP (cAMP) when activated by an agonist. Therefore, measurement of intracellular cAMP levels can be used to assess whether compounds of the invention are agonists of SSTR subtypes (John Kelly, Troy Stevens, W. Joseph Thompson, and Roland Seifert, Current Protocols in Pharmacology, 2005,2.2.1-2.2). One example of an intracellular cAMP assay is described below.
One day prior to the assay, 40,000 Chinese hamster ovary (CHO) cells expressing the human somatostatin receptor subtype 2 are plated in each well of a 96-well tissue culture plate in DM-MEM growth media (Gibco) with the following additives: 10% fetal bovine serum (Gibco), 100 U/mL penicillin (Gibco), 100 ug/mL streptomycin (Gibco), 10 mM HEPES (Gibco), 1.2 mM sodium hydroxide, 0.5 mg/mL G-418 (Gibco)). The cells are cultured overnight at 37° C., 5% CO2 and 95% humidity. On the day of the assay, the media is aspirated and the cells are washed with 1X Dulbecco's phosphate buffered saline (Gibco). Next, 5 μL of assay buffer (1× Earle's Balanced Salt Solution (Gibco), 5 mM MgCl2, 10 mM HEPES, 0.1% bovine serum albumin, 0.2 mM 3-Isobutyl-1-methylxanthine (IBMX, Biomol Research Labs)) and forskolin is added. Various dilutions of the compounds of the invention are prepared in assay buffer and 5 μL of the dilutions are added to the cultured cells and incubated for 15 minutes at 37° C. (the final concentration of the compounds of the invention are typically 0-10,000 nM). 10 μL of lysis buffer (HRTF cAMP kit, Cisbio) containing cAMP detection and visualization antibodies are added and the assay is allowed incubate for 1-24 hours at room temperature. The intracellular cAMP concentrations are then measured using a commercially available detection kit (for example, the cAMP HTRF kit, Cisbio). The measured intracellular cAMP concentrations are plotted vs. the concentration of the compounds of the invention and the EC50 of the compounds are calculated using standard methods.
In general terms: cAMP levels reflect the balance of adenylyl cyclase and phosphodiesterase activity.
Usually EC50 stands for the concentration that produces a half-maximal response. In turn, `Cc1cc(Cl)cc(-c2cnc3ccc(-c4cccc(O)c4)cc3c2C(=O)N(C)C[C@H]2CCCN2)c1` (single isomer, unassigned) [Compound 1-5] returned an EC50 of 39 nM.

Compound `Cc1cc(Cl)cc(-c2cnc3ccc(-c4cccc(O)c4)cc3c2C(=O)N(C)C[C@@H]2CCCN2)c1` [Compound 1-1, 3-(3-chloro-5-methylphenyl)-6-(3-hydroxyphenyl)-N-methyl-N-[(2S) -pyrrolidin-2-ylmethyl]quinoline-4-carboxamide] gave an EC50 of 0.12 nM.

Turning to `CC[C@H](N)CN(C)C(=O)c1c(-c2cc(C)cc(Cl)c2)cnc2ccc(-c3cc(O)cc(C(N)=O)c3)cc12` [Compound 1-8, N-[(25)-2-aminobutyl]-6-(3-carbamoyl-5-hydroxyphenyl)-3-(3-chloro-5-methylphenyl)-N-methylquinoline-4-carboxamide], the EC50 fell in the range of 100 to 1000 nM.

With `CN(C)C(=O)c1cccc(-c2cnc3ccc(-c4cccc(O)c4)cc3c2C(=O)N(C)C[C@@H]2CCCN2)c1` [Compound 1-73, 3-[3-(dimethylcarbamoyl)phenyl]-6-(3-hydroxyphenyl)-N-methyl-N-[(2S)-pyrrolidin-2-ylmethyl]quinoline-4-carboxamide], the EC50 fell in the range of 100 to 1000 nM.

On to `Cc1cc(Cl)cc(-c2cnc3ccc(-c4cccc(O)c4)nc3c2C(=O)N(C)C[C@@H]2CCCN2)c1` [Compound 2-1, 3-(3-chloro-5-methylphenyl)-6-(3-hydroxyphenyl)-N-methyl-N-[(2S) -pyrrolidin-2-ylmethyl]-1,5-naphthyridine-4-carboxamide], for which the EC50 was under 100 nM.

`CN(C[C@@H]1CCCN1)C(=O)c1c(-c2cccc(O)c2)cnc2ccc(-c3cccc(O)c3)nc12` [Compound 2-2, 3,6-bis(3-hydroxyphenyl)-N-methyl-N-[(2S)-pyrrolidin-2-ylmethyl]-1,5-naphthyridine-4-carboxamide] had a half-maximal effective concentration (EC50) of 100 to 1000 nM.

As for `Cc1cc(Cl)cc(-c2cnc3ccc(-c4cc(O)ccc4F)nc3c2C(=O)N(C)C[C@@H]2CCCN2)c1` [Compound 2-3, 3-(3-chloro-5-methylphenyl)-6-(2-fluoro-5-hydroxyphenyl)-N-methyl-N-[(2S)-pyrrolidin-2-ylmethyl]-1,5-naphthyridine-4-carboxamide], the EC50 is under 100 nM.

`Cc1cc(Cl)cc(-c2cnc3ccc(-c4cc(O)cc(C#N)c4)nc3c2C(=O)N(C)C[C@@H]2CCCN2)c1` [Compound 2-4, 3-(3-chloro-5-methylphenyl)-6-(3-cyano-5-hydroxyphenyl)-N-methyl-N-[(2S)-pyrrolidin-2-ylmethyl]-1,5-naphthyridine-4-carboxamide] displayed an EC50 of 100 to 1000 nM.

On to `CC[C@H](N)CN(C)C(=O)c1c(-c2cc(C)cc(C)c2)cnc2ccc(-c3cc(O)cc(C#N)c3)nc12` [Compound 2-5, N-[(2S)-2-aminobutyl]-6-(3-cyano-5-hydroxyphenyl)-3-(3,5-dimethylphenyl)-N-methyl-1,5-naphthyridine-4-carboxamide], for which the EC50 was under 100 nM.

For the compound `CC[C@H](N)CN(C)C(=O)c1c(-c2cc(C)cc(Cl)c2)cnc2ccc(-c3cc(O)cc(C#N)c3)nc12` [Compound 2-6, N-[(2S)-2-aminobutyl]-3-(3-chloro-5-methylphenyl)-6-(3-cyano-5-hydroxyphenyl)-N -methyl-1,5-naphthyridine-4-carboxamide], the EC50 was under 100 nM.

In turn, `CC[C@H](N)CN(C)C(=O)c1c(-c2cc(C)cc(F)c2)cnc2ccc(-c3cc(O)cc(C#N)c3)nc12` [Compound 2-7, N-[(2S)-2-aminobutyl]-6-(3-cyano-5-hydroxyphenyl)-3-(3-fluoro-5-methylphenyl)-N -methyl-1,5-naphthyridine-4-carboxamide] displayed an EC50 of under 100 nM.

The compound `CN(C[C@@H]1CCCN1)C(=O)c1c(-c2cccc(-n3cccn3)c2)cnc2ccc(-c3cccc(O)c3)nc12` [Compound 2-8, 6-(3-hydroxyphenyl)-N-methyl-3-[3-(1H-pyrazol-1-yl)phenyl]-N-[(2S)-pyrrolidin-2-ylmethyl]-1,5-naphthyridine-4-carboxamide] yielded an EC50 of 100 to 1000 nM.

`CN(C[C@@H]1CCCN1)C(=O)c1c(-c2cccc(C#N)c2)cnc2ccc(-c3cc(F)cc(C#N)c3)nc12` [Compound 2-15, 6-(3-cyano-5-fluorophenyl)-3-(3-cyanophenyl)-N-methyl-N-[(2S)-pyrrolidin-2-ylmethyl]-1,5-naphthyridine-4-carboxamide] gave an EC50 of 100 to 1000 nM.

With `CN(CC1CCCN1)C(=O)c1c(-c2cccc(CC(=O)O)c2)cnc2ccc(-c3cccc(O)c3)nc12` (stereo not drawn) [Compound 2-20, 2-{3-[6-(3-hydroxyphenyl)-4-[methyl(pyrrolidin-2-ylmethyl)carbamoyl]-1,5-naphthyridin-3-yl]phenyl}acetic acid], the EC50 lay in the range of 100 to 1000 nM.

In turn, `COC(=O)Cc1cccc(-c2cnc3ccc(-c4cccc(O)c4)nc3c2C(=O)N(C)C[C@@H]2CCCN2)c1` [Compound 2-21, methyl 2-{3-[6-(3-hydroxyphenyl)-4-{methyl[(2S)-pyrrolidin-2-ylmethyl]carbamoyl}-1,5-naphthyridin-3-yl]phenyl}acetate] gave a 50% effective concentration (EC50) of 100 to 1000 nM.

`CN(C[C@@H]1CCCN1)C(=O)c1c(-c2cccc(CCC(=O)O)c2)cnc2ccc(-c3cccc(O)c3)nc12` [Compound 2-22, 3-{3-[6-(3-hydroxyphenyl)-4-{methyl[(2S)-pyrrolidin-2-ylmethyl]carbamoyl}-1,5-naphthyridin-3-yl]phenyl}propanoic acid] had a concentration giving a half-maximal response (EC50) of 100 to 1000 nM.

`CN(C[C@@H]1CCCN1)C(=O)c1ccnc2ccc(-c3cccc(O)c3)nc12` [Compound 3-1, 6-(3-hydroxyphenyl)-N-methyl-N-[(2S)-pyrrolidin-2-ylmethyl]-1,5-naphthyridine-4-carboxamide] had an EC50 of under 100 nM.

With `Cc1cc(F)cc(-c2cnc3ccc(N4CCCC4)nc3c2C(=O)N(C)C[C@@H]2CCCN2)c1` [Compound 3-2, 3-(3-fluoro-5-methylphenyl)-N-methyl-6-(pyrrolidin-1-yl)-N-[(2S)-pyrrolidin-2-ylmethyl]-1,5-naphthyridine-4-carboxamide], the concentration giving a half-maximal response (EC50) is 100 to 1000 nM.

`Cc1cc(F)cc(-c2cnc3ccc(N4CCCC(O)C4)nc3c2C(=O)N(C)C[C@@H]2CCCN2)c1` (stereo partly drawn) [Compound 3-3] returned an EC50 of 100 to 1000 nM.

`CN(C[C@@H]1CCCN1)C(=O)c1c(N2CCCC2)cnc2ccc(-c3cccc(O)c3)nc12` [Compound 3-4, 6-(3-hydroxyphenyl)-N-methyl-3-(pyrrolidin-1-yl)-N-[(2S)-pyrrolidin-2-ylmethyl]-1,5-naphthyridine-4-carboxamide] displayed an EC50 of under 100 nM.

In turn, `Cc1cccc(-c2cnc3ccc(-c4cccc(O)c4)nc3c2C(=O)N(C)C[C@@H]2CCCN2)n1` [Compound 3-5, 6-(3-hydroxyphenyl)-N-methyl-3-(6-methylpyridin-2-yl)-N-[(2S)-pyrrolidin-2-ylmethyl]-1,5-naphthyridine-4-carboxamide] showed an EC50 of 100 to 1000 nM.

Consider `CC1CN(c2cnc3ccc(-c4cccc(O)c4)nc3c2C(=O)N(C)C[C@@H]2CCCN2)CC(C)O1` (stereo partly drawn) [Compound 3-6, 3-(2,6-dimethylmorpholin-4-yl)-6-(3-hydroxyphenyl)-N-methyl-N-[(2S)-pyrrolidin-2-ylmethyl]-1,5-naphthyridine-4-carboxamide], for which the EC50 is under 100 nM.

On to `CC#Cc1cnc2ccc(-c3cc(F)cc(C#N)c3)nc2c1C(=O)N(C)C[C@@H]1CCCN1` [Compound 3-7, 6-(3-cyano-5-fluorophenyl)-N-methyl-3-(prop-1-yn-1-yl)-N-[(2S)-pyrrolidin-2-ylmethyl]-1,5-naphthyridine-4-carboxamide], for which the concentration for a half-maximal effect (EC50) is 100 to 1000 nM.

In turn, `Cc1cc(F)cc(-c2cnc3ccc(-c4cncc(C#N)c4)cc3c2C(=O)N(C)C[C@@H]2CCCN2)c1` [Compound 3-8, 6-(5-cyanopyridin-3-yl)-3-(3-fluoro-5-methylphenyl)-N-methyl-N-[(2S)-pyrrolidin-2-ylmethyl]quinoline-4-carboxamide] displayed an EC50 of under 100 nM.

As for `CN(C[C@@H]1CCCN1)C(=O)c1c(C2=CCCC2)cnc2ccc(-c3cc(F)cc(C#N)c3)nc12` [Compound 3-9, 6-(3-cyano-5-fluorophenyl)-3-(cyclopent-1-en-1-yl)-N-methyl-N-[(2S)-pyrrolidin-2-ylmethyl]-1,5-naphthyridine-4-carboxamide], the EC50 was under 100 nM.

For the compound `Cc1cc(F)cc(-c2cnc3ccc(-c4cnn(C)c4)cc3c2C(=O)N(C)C[C@@H]2CCCN2)c1` [Compound 3-10, 3-(3-fluoro-5-methylphenyl)-N-methyl-6-(1-methyl-1H-pyrazol-4-yl)-N-[(2S)-pyrrolidin-2-ylmethyl]quinoline-4-carboxamide], the EC50 was 100 to 1000 nM.

Compound `CN(C[C@@H]1CCCN1)C(=O)c1c(N2CCCCC2)cnc2ccc(-c3cccc(O)c3)nc12` [Compound 3-11, 6-(3-hydroxyphenyl)-N-methyl-3-(piperidin-1-yl)-N-[(2S)-pyrroldin-2-ylmethyl]-1,5-naphthyridine-4-carboxamide] yielded a half-maximal effective concentration (EC50) of 100 to 1000 nM.

(Values after patent US11028068B2, “Somatostatin modulators and uses thereof” (Crinetics Pharmaceuticals, Inc., priority 2017, dated 2021).)
